Measured values: patent US20120058972A1, “NOVEL USE” (priority 2009, published 2012)

Tests used:
[1] = test system: Dextran Sulphate Sodium Induced Colitis Mouse Model; assay: Dextran sulphate sodium induced colitis mouse model, IL-6 and MIP-2 in colon tissue homogenates (ELISA); format: in vivo, C57BL/6 mice; conditions: 3.5% DSS in drinking water 5 days
Source text: Two groups (n=24 each) of adult C57BL/6 mice (Jackson Laboratories, Bar Harbour, Me., USA), conventionally raised (CR) and bacteria-depleted (BD) mice, were used to induce colitis. All animals were housed within a 12-h light/dark cycle and had access to mouse chow and water ad libitum.
At 6 weeks of age, conventionally colonised mice were housed under conventional conditions with untreated water (CR group) whilst mice in the BD group were fed an antibiotic cocktail in their drinking water for 2 weeks. Kanamycin (8 mg/ml), Gentamicin (0.7 mg/ml), Colistin (34,000 U/ml), Metronidazole (4.3 mg/ml) and Vanacomycin (0.9 mg/ml) comprised the antibiotic cocktail. Concentrations of antibiotics in the water were calculated based on the average water consumed by age group.
At 8 weeks of age, intestinal colitis was induced by feeding 3.5% DSS (Dextran Sulphate Sodium) (MP Biomedicals, Aurora, Ohio, USA) in drinking water for 5 days in all mice of both groups (CR and BD). At 10 weeks of age, half the mice of each group started receiving Bimuno (5 g/L) for 7 days. At the end of week 10, the animals were euthanized and their colons were harvested for analysis.
Murine IL-6 and MIP-2 cytokines were analysed by ELISA (Quantikine, R&D Systems, Minn., USA) on colon tissue homogenates according to manufacturer's instructions. Briefly, the proximal colons for each group were collected and homogenised with PBS homogenising buffer containing 1% Triton X-100 supplemented with a cocktail of protease inhibitors. The homogenised solutions were centrifuged at 12,000 rpm for 10 min, and the supernatants were separated into aliquots and stored at −70° C.

[2] = test system: T84 cells; assay: Effect of B-GOS on TNF-α induced IL-8 secretion in T84 cells (ELISA); format: cell-based, human; conditions: TNF-α 10 ng/mL, vs untreated, p<0.001
Method: (§1) Intestinal epithelial cells were grown to confluence in 24-well plates from an initial concentration of 5×10^5 cells/mL. When the cells reached 70% confluence, they were treated in quadruplicate as follows: (i) negative control, (ii) TNF-α (10 ng/mL) positive control, (iii) B-GOS (5 g/L) and (iv) TNF-α (10 ng/mL) with B-GOS (5 g/L). A concentration of 5 g/L of oligosaccharides was used since this is the physiological concentration of oligosaccharides found in human milk. After 16 hours, supernatants were collected and stored at −20° C. for IL-8 and MIP-3α secretion to be determined later by ELISA. In following experiments, TNF-α was replaced by IL1β or flagellin.
Quantitation of IL-8. The IL-8 concentration was measured by ELISA as described previously (Claud E C, Savidge T, Walker W A 2003 Modulation of human intestinal epithelial cell IL-8 secretion by human milk factors. Pediatr Res 53:419-425). […] The reaction was stopped with 100 μL 2N H2SO4 and the absorbance was read at 490 nm. The concentration of IL-8 in the samples was calculated from the IL-8 standard curve. […]
Statistical analysis. […] Gene expression data obtained by qRT-PCR was expressed as the mean with SE. […]

[3] = test system: NF-κB p65 protein; assay: Effect of B-GOS on NF-κB translocation (immunofluorescence); format: cell-based, human; conditions: NCM-460 cells, TNF-α 10 ng/mL alone, 30 minutes
Method: Effect of B-GOS on NF-KB translocation. NCM-460 cells were grown to 70% confluency on cover slips and treated in duplicate for 10 or 30 minutes as follows: (i) negative control, (ii) TNF-α (10 ng/mL) positive control, and (iii) TNF-α (10 ng/mL) with B-GOS (5 g/L). The medium was removed and the cells were fixed in 4% paraformaldehyde. After permeabilization with methanol and blocking with 10% goat serum in 0.25% BSA in TBS, the cells were probed with rabbit anti-human NF-κB p65 polyclonal antibody. After washing, the cells were incubated with CyTM 3-conjugated goat anti-rabbit antibody. The cover slips were then washed and mounted on a glass slide to be visualized under the microscope (Nikon Eclipse TE2000-S).

[4] = test system: NCM-460 cells; assay: Effect of B-GOS on IL-8 and MIP-3α secretion in NCM-460 cells (ELISA); format: cell-based, human; conditions: TNF-α 10 ng/mL, vs untreated, p<0.001
Method: as §1
Quantitation of IL-8. The IL-8 concentration was measured by ELISA as described previously (Claud E C, Savidge T, Walker W A 2003 Modulation of human intestinal epithelial cell IL-8 secretion by human milk factors. Pediatr Res 53:419-425). […] The reaction was stopped with 100 μL 2N H2SO4 and the absorbance was read at 490 nm. The concentration of IL-8 in the samples was calculated from the IL-8 standard curve.
Quantitation of MIP-3α. The amount of MIP-3α secretion was measured by ELISA similar to IL-8, except that the plate was coated overnight with 100 μL 2.0 μg/mL mouse anti-human MIP-3α monoclonal antibody. […] The concentration of MIP-3α in the samples was calculated from the MIP-3α standard curve. […]

[5] = test system: NCM-460 cells; assay: Effect of B-GOS on induction of cytokine transcription (qRT-PCR of IL-8, MIP-3α, MCP-1 mRNA); format: cell-based, human; conditions: TNF-α 10 ng/mL, 18 hours, p<0.001
Method: Effect of B-GOS on induction of cytokine transcription. NCM-460 cells were grown to confluence in 6-well plates from an initial concentration of 5×10^5 cells/mL. When the cells reached 70% confluence, they were treated as follows in quadruplicate: (i) negative control, (ii) TNF-α or IL1β or flagellin (10 ng/mL) positive control, and (iii) TNF-α or IL1β or flagellin (10 ng/mL) with B-GOS (5 g/L). After 18 hours, total cellular RNA was isolated by Trizol-chloroform extraction. Using the SuperScript III Platinum SYBR Green One-Step qRT-PCR kit, the mRNA expression of IL-8, MIP-3α and MCP-1 was measured on a MJ Opticon 2 and standardized to mRNA expression of GAPDH.
Statistical analysis. Induction of cytokines was standardized to the positive control with error bars representing standard error (SE). Comparisons between groups were performed using a two-tailed Student's t test. Gene expression data obtained by qRT-PCR was expressed as the mean with SE. Comparisons between groups were performed using a Student's two-tailed t test after logarithmic transformation. A p value <0.05 was considered statistically significant and indicated by an asterisk (*), a p value <0.01 was indicated by two asterisks (**) and a p value <0.001 was indicated by three asterisks (***).

Substance: Dextran Sulphate Sodium [DSS]
- induction of IL-6 secretion by DSS ([1]; BD mice, p<0.0001): 6.2 fold
- induction of MIP-2 secretion by DSS ([1]; BD mice, p=0.0005): 27.2 fold
- induction of IL-6 secretion by DSS ([1]; conventional mice, p<0.0001): 2.2 fold
- induction of MIP-2 secretion by DSS ([1]; conventional mice, p<0.0001): 8.3 fold

Substance: TNF-α
- increase of IL-8 secretion upon TNF-α stimulation [2]: 4.9 fold
- nuclear translocation of NF-κB p65 upon TNF-α stimulation [3]: clearly translocated into the nuclei
- increase of IL-8 secretion upon TNF-α stimulation [4]: 58.8 fold
- increase of MIP-3α secretion upon TNF-α stimulation [4]: 25.0 fold
- increase of IL-8 mRNA expression upon TNF-α stimulation [5]: 12.2 fold
- increase of MIP-3α mRNA expression upon TNF-α stimulation [5]: 99.4 fold
